We go through one compound from patent publication US8962659B2, “Phenoxyethyl piperidine compounds” (Eli Lilly and Company, priority 2012, dated 2015).

Usually Ki stands for a dissociation constant, usually derived from enzyme kinetics or from competition with a known ligand. As usually defined, the IC50 is the concentration that gives 50% inhibition.

One test addresses human EP2 (Homo sapiens (Human), UniProt P43116). Nature of the test: In vitro binding to human EP2 ([3H]-PGE2 displacement, membranes). The note with it: [3H]-PGE2, HEK293 membranes; n = 3; read-out: hEP2, Ki. The protocol: (§1) hEP1 and hEP4 membranes are prepared from recombinant HEK293 cells stably expressing the human EP1 (Genbank accession number AY275470) or EP4 (Genbank accession number AY429109) receptors. hEP2 and hEP3 membranes are prepared from HEK293 cells transiently transfected with EP2 (Genbank accession number AY275471) or EP3 (isoform VI: Genbank accession number AY429108) receptor plasmids. Frozen cell pellets are homogenized in homogenization buffer using a Teflon/glass homogenizer. Membrane protein is aliquoted and quick frozen on dry ice prior to storage at -80° C. Homogenization buffer contained 10 mM Tris-HCl, pH 7.4, 250 mM sucrose, 1 mM EDTA, 0.3 mM indomethacin and plus CompleteTM, with EDTA, obtained from Roche Molecular Biochemicals (Catalog Number 1 697 498). Kd values for [3H]-PGE2 binding to each receptor are determined by saturation binding studies or homologous competition. […] Nonspecific binding is calculated by comparing binding in the presence and absence of 2 μM of PGE2. The membranes are harvested by filtration (TomTek harvester), washed 4 times with cold buffer (10 mM MES pH 6.0 with KOH, 10 mM MgCl2), dried in a 60° C. oven, and the radioactivity is quantified as counts per minute (CPM) using a TopCount detector. Percent specific binding is calculated as the percent of the binding in the absence of any inhibitor, corrected for binding in the presence of 2 μM of PGE2.

The next test concerns the target rat EP4 (Rattus norvegicus (Rat), UniProt P43114). Description: In vitro rat EP4 functional antagonist activity (PGE2-stimulated cAMP, HTRF, HEK293). The class given is cell-based. The conditions noted are these: inhibition of PGE2 (EC80)-stimulated cAMP, read-out: IC50 measured at rat EP4. On the technique in general: TR-FRET usually uses a lanthanide donor and a delayed reading to cut background.

A further test has as its target human EP1 (Homo sapiens (Human), UniProt P34995). Description: In vitro binding to human EP1 ([3H]-PGE2 displacement, membranes). The conditions noted are these: [3H]-PGE2, HEK293 membranes; read-out: hEP1, Ki. The method, then: as §1
The next test addresses human EP3 (isoform VI) (Homo sapiens (Human), UniProt P43115). Description: In vitro binding to human EP3 ([3H]-PGE2 displacement, membranes). The note with it: [3H]-PGE2, HEK293 membranes; read-out: hEP3, Ki. The method, then:
as §1

SMILES strings stand for the structures. Structures can show the parent of a compound that is named as a salt.

Chain of rat EP4 (P43114 whole entry): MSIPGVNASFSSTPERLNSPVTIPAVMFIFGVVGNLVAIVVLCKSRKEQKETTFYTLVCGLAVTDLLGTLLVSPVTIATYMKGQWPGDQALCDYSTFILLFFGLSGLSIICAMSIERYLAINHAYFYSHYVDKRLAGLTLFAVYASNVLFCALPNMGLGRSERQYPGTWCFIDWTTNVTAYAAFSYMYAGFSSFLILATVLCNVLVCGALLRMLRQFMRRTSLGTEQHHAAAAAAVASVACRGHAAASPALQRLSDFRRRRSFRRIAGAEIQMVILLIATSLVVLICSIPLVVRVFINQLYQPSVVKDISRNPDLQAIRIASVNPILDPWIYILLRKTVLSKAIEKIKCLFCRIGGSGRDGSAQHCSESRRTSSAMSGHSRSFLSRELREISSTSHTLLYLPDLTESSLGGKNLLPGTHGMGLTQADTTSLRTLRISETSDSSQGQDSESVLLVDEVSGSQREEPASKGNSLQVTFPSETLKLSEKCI
Chain of human EP3 (isoform VI) (P43115 other isoform, or with tags, fused parts or gaps isoform P43115-4): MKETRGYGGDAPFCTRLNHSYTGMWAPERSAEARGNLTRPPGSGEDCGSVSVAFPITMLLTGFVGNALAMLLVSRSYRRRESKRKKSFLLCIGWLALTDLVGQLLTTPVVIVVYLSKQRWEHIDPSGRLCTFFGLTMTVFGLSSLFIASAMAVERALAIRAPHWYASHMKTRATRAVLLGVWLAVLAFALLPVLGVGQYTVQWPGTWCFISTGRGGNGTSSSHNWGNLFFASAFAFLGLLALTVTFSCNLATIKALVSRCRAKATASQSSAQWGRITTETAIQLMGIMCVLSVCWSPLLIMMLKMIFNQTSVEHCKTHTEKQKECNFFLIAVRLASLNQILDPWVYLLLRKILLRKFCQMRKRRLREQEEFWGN
Chain of human EP2 (P43116 whole entry, canonical isoform): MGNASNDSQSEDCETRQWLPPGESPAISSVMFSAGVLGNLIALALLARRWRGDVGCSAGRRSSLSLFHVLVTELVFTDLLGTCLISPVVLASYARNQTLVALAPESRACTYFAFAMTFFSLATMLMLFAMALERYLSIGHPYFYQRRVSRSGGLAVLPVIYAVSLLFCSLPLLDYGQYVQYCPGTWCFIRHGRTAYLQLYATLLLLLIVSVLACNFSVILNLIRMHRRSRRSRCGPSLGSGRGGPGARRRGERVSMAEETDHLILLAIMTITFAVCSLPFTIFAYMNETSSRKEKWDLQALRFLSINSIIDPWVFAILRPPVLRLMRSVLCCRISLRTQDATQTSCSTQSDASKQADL
Chain of human EP1 (P34995 whole entry, canonical isoform): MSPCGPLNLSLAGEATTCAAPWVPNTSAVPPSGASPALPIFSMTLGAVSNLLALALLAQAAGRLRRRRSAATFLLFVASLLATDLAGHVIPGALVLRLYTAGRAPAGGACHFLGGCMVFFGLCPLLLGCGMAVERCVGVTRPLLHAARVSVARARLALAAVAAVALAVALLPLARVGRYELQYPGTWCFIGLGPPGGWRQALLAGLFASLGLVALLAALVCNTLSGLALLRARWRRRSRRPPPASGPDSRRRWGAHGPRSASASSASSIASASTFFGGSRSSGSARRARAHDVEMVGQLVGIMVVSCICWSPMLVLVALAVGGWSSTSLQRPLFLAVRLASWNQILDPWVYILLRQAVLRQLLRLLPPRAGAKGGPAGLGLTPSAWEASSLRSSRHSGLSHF
Procedure for rat EP4: Rat EP4 cDNA (Genebank Accession# NM—03276) is cloned into pcDNA 3.1 vector and subsequently transfected in HEK293 cells for receptor expression. Rat EP4 stable clone is scaled up and then frozen down as cell bank for future compounds screening. To test EP4 antagonist compounds in rEP4 cells, thaw the frozen cells and then resuspend cells in cAMP assay buffer. […] The cells are plated into 96-well half area flat-bottom polystyrene black plates (Costar 3694). […] Then diluted compounds are added into cAMP assay buffer which contains PGE2 (Cayman 14010, in a concentration predetermined to produce an EC80) at ratio of DMSO/buffer at 1/100. The cells are treated with compounds in the presence of PGE2 (EC80 concentration) for 30 minutes at room temperature. The cAMP levels generated from the cells are quantified by a cAMP HTRF assay kit (Cisbio 62AM4PEC). The plates are read on an EnVision plate reader using HTRF optimized protocol (PerkinElmer). IC50s are calculated using Graphpad Prism (v. 4) nonlinear regression, sigmoidal dose response curve fitting.

Consider `C[C@H](NC(=O)[C@H]1CCCCN1CCOc1ccccc1)c1ccc(C(=O)O)cc1` [Example 1, 4-[(1S)-1-[[(2R)-1-(2-phenoxyethyl)piperidine-2-carbonyl]amino]ethyl]benzoic acid hydrochloride], for which the inhibition constant Ki on human EP2 is 1.55 ± 1.86 µM; on human EP1 it was above 17.5 µM; on human EP3 (isoform VI), above 14 µM. In addition, the IC50 at rat EP4 worked out at 0.015 µM.
